According to patent US20240050436A1, “COMPOSITIONS AND METHODS USED FOR RETINAL ISCHEMIA OR DIABETES” (The United States GOVERNMENT As Represented By The …, priority 2021, published 2024):

Tested on: HREs
Assay: RT-PCR gene expression in HREs treated with CM of p75NTR-modulated MSCs
Type: cell-based, human
Method: GFP-labeled mouse MSCs were obtained as a kind gift from Dr. William D. Hill (MUSC, Charleston, SC) and used between passages 5-9. MSCs cells were cultured in high glucose DMEM (4.5 g/L D-glucose, Thermo-Fisher Grand Island, NY, USA) supplemented with 10% FBS and 1% penicillin/streptomycin at 37° C. and 5% CO2. Knocking down p75NTR expression was performed according to manufacturer's instructions (Santa Cruz Biotechnology Inc., Dallas, TX, USA). Briefly, MSCs were shifted to antibiotic-free medium over night when 60-80% confluent. Cells were transfected with Si-RNA against p75NTR receptor (sc-37268) or scrambled (sc-37007) with the aid of lipofectamine transfection reagent (sc-29528) for 6 h. DMEM medium containing 2× of FBS and antibiotic was added on top of pure transfection medium for an extra 12 h. Next, transfection medium was removed and cells were allowed to recover in 1×DMEM medium for 6 h. For in vivo studies, cells were collected in sterile PBS (50,000 cells/μL) for intravitreal injection 48 h after I/R. For additional set of experiments, MSCs were treated with the p75NTR modulator (LM11A-31, 200 nM). Confluent MSCs (80% confluent) were treated with LM11A-31 or its vehicle for 12 h. Then, condition media were collected as well as cell lysates using mirVANA™ PARIS™ Kit (Ambion Inc., Austin, TX, USA), according to manufacturer's instructions.
All human retinal endothelial (HRE) cell studies were in accordance with Association for Research in Vision and Ophthalmology and Charlie Norwood Veterans Affairs Medical Center, research and ethics committee. HREs and supplies were purchased from Cell Systems Corporation (Kirkland, WA, USA) and VEC Technology Inc. (Rensselaer, NY, USA).
Retinas samples and MSCs lysates were processed using (mirVANA™ PARIS™ Kit, Ambion Inc., Austin, TX, USA) and RNA was purified and quantified as described by the manufacturer's instructions. A one-step quantitative RT-PCR kit (Invitrogen, Carlsbad, CA, USA) was used to amplify 10 ng retinal mRNA. Quantitative PCR was conducted using a StepOnePlus qPCR system (Applied BioSystems, Life Technologies, Waltham, MA, USA). For HREs, RNA isolation was performed using the TRIzol Reagent (Invitrogen, Waltham, MA, USA), according to the manufacturer's instructions. RNA concentration was quantified by spectrophotometry at 260 nm using Nanodrop 2000 (Thermo Fisher Scientific, Waltham, MA, USA). A total of 1 μg of RNA was reverse transcribed to prepare cDNA using the RNA to cDNA EcoDry premix (Takara Bio USA Inc., Mountain View, CA, USA). Real-time PCR was performed using the CFX96 PCR instrument with matched primers (See Table 1) and Universal SYBR Green Supermix (Bio-Rad, Hercules, CA, USA). The following PCR parameters were used: initial denaturation cycle at 95° C. for 3 min, followed by 40 amplification cycles at 95° C. for 10 s, 56° C. for 15 s, and 72° C. for 1 min. The results are presented as the fold change in relative gene expression quantified using the delta-delta CT method and normalized to internal controls (18 S, GAPDH) and expressed relative to controls.

[1] = HREs treated with CM of modulated MSCs vs controls
[2] = HREs treated with CM of modulated MSCs, fold change, delta-delta CT, relative to controls

CCC(C)C(N)C(=O)NCCN1CCOCC1 (stereo not shown) [LM11A-31, 2-amino-3-methyl-pentanoic acid [2-morpholin-4-yl-ethyl]-amide]
Akt gene expression in HREs, increase [1]: ~2.7 Fold
Bax gene expression in HREs, increase [1]: ~1.9 Fold
Bcl-2 gene expression in HREs, increase [1]: ~2.5 Fold
VEGF-A gene expression in HREs, increase [1]: ~3.5 Fold
p53 gene expression in HREs, change [1]: no change
p53 relative gene expression in HREs (mean±SEM) (HREs treated with CM of modulated MSCs, first value of the printed pair): 3.7±3.4
Akt relative gene expression in HREs (mean±SEM) [2]: 2.68±0.53
Bax relative gene expression in HREs (mean±SEM) [2]: 1.88±0.105
Bcl-2 relative gene expression in HREs (mean±SEM) [2]: 2.45±0.24
VEGF-A relative gene expression in HREs (mean±SEM) [2]: 3.58±0.58
